In brackets after ≈: the same amount, converted by molar mass.
Tests used:
Pseudomonas aeruginosa = assay: Antibacterial activity against Pseudomonas aeruginosa ATCC 10145 after 24 hrs by twofold serial dilution method; format: functional; conditions: for MIC: Pseudomonas aeruginosa, ATCC 10145, 24 h
Aspergillus niger = assay: Antifungal activity against Aspergillus niger after 72 to 96 hrs by twofold serial dilution method; format: functional; conditions: for MIC: Aspergillus niger
Escherichia coli = assay: Antibacterial activity against Escherichia coli ATCC 25835 after 24 hrs by twofold serial dilution method; format: functional; conditions: for MIC: Escherichia coli, ATCC 25835, 24 h
Staphylococcus aureus = assay: Antibacterial activity against Staphylococcus aureus ATCC 25825 after 24 hrs by twofold serial dilution method; format: functional; conditions: for MIC: Staphylococcus aureus, ATCC 25825, 24 h
Candida albicans = assay: Antifungal activity against Candida albicans after 24 hrs by twofold serial dilution method; format: functional; conditions: for MIC: Candida albicans, 24 h
Klebsiella pneumoniae = assay: Antibacterial activity against Klebsiella pneumoniae ATCC 15490 after 24 hrs by twofold serial dilution method; format: functional; conditions: for MIC: Klebsiella pneumoniae, ATCC 15490, 24 h
Bacillus subtilis = assay: Antibacterial activity against Bacillus subtilis ATCC 451 after 24 hrs by twofold serial dilution method; format: functional; conditions: for MIC: Bacillus subtilis, ATCC 451, 24 h
Cryptococcus neoformans = assay: Antifungal activity against Cryptococcus neoformans after 72 to 96 hrs by twofold serial dilution method; format: functional; conditions: for MIC: Cryptococcus neoformans
Salmonella typhi = assay: Antibacterial activity against Salmonella typhi ATCC 24915 after 24 hrs by twofold serial dilution method; format: functional, Salmonella enterica subsp. enterica serovar Typhi; conditions: for MIC: Salmonella enterica, ATCC 24915, 24 h

Structure (SMILES) | -logMIC (Pseudomonas aeruginosa) | MIC (Pseudomonas aeruginosa) [µg/mL] | -logMIC (Aspergillus niger) | MIC (Aspergillus niger) [µg/mL] | -logMIC (Escherichia coli) | MIC (Escherichia coli) [µg/mL] | -logMIC (Staphylococcus aureus) | MIC (Staphylococcus aureus) [µg/mL] | -logMIC (Candida albicans) | MIC (Candida albicans) [µg/mL] | -logMIC (Klebsiella pneumoniae) | MIC (Klebsiella pneumoniae) [µg/mL] | -logMIC (Bacillus subtilis) | MIC (Bacillus subtilis) [µg/mL] | -logMIC (Cryptococcus neoformans) | MIC (Cryptococcus neoformans) [µg/mL] | MIC (Salmonella typhi) [µg/mL] | -logMIC (Salmonella typhi)
Cc1ccc([C@H]2O[C@@H](c3ccc(C)cc3)[C@H](C)/C(=N/NC(N)=S)[C@H]2C)cc1 | 4 | 100 (≈ 262 µM) | 4.301 | 50 (≈ 131 µM) | 4.602 | 25 (≈ 65.5 µM) | 4.301 | 50 (≈ 131 µM) | 4 | 100 (≈ 262 µM) | 4 | 100 (≈ 262 µM) | 4.301 | 50 (≈ 131 µM) | 4 | 100 (≈ 262 µM) | 50 (≈ 131 µM) | –
C[C@@H]1/C(=N/NC(N)=S)C[C@@H](c2ccccc2)O[C@H]1c1ccccc1 | 3.698 | 200 (≈ 589 µM) | – | – | – | – | 4 | 100 (≈ 295 µM) | 3.698 | 200 (≈ 589 µM) | 4 | 100 (≈ 295 µM) | – | – | 4.301 | 50 (≈ 147 µM) | 50 (≈ 147 µM) | –
CC[C@@H]1/C(=N/NC(N)=S)C[C@@H](c2ccccc2)O[C@H]1c1ccccc1 | 4 | 100 (≈ 283 µM) | 3.698 | 200 (≈ 566 µM) | 4.602 | 25 (≈ 70.7 µM) | 4.301 | 50 (≈ 141 µM) | 3.698 | 200 (≈ 566 µM) | 4 | 100 (≈ 283 µM) | 4.301 | 50 (≈ 141 µM) | 4.301 | 50 (≈ 141 µM) | 50 (≈ 141 µM) | –
C[C@@H]1/C(=N\NC(N)=S)[C@@H](C)[C@H](c2ccc(F)cc2)O[C@@H]1c1ccc(F)cc1 | 4 | 100 (≈ 257 µM) | 4 | 100 (≈ 257 µM) | 4.301 | 50 (≈ 128 µM) | 4.301 | 50 (≈ 128 µM) | 4 | 100 (≈ 257 µM) | 4.301 | 50 (≈ 128 µM) | 4.602 | 25 (≈ 64.2 µM) | 4.602 | 25 (≈ 64.2 µM) | 25 (≈ 64.2 µM) | –
C[C@@H]1/C(=N\NC(N)=S)[C@@H](C)[C@H](c2ccc(Cl)cc2)O[C@@H]1c1ccc(Cl)cc1 | 4.301 | 50 (≈ 118 µM) | 4 | 100 (≈ 237 µM) | 4.301 | 50 (≈ 118 µM) | 4.602 | 25 (≈ 59.2 µM) | 4.602 | 25 (≈ 59.2 µM) | 4.602 | 25 (≈ 59.2 µM) | 4.602 | 25 (≈ 59.2 µM) | 4.602 | 25 (≈ 59.2 µM) | 25 (≈ 59.2 µM) | –
C[C@@H]1/C(=N\NC(N)=S)[C@@H](C)[C@H](c2ccc(Br)cc2)O[C@@H]1c1ccc(Br)cc1 | 4.903 | 12.5 (≈ 24.4 µM) | 3.698 | 200 (≈ 391 µM) | 4.301 | 50 (≈ 97.8 µM) | 4.602 | 25 (≈ 48.9 µM) | 4.301 | 50 (≈ 97.8 µM) | 4.602 | 25 (≈ 48.9 µM) | 4.301 | 50 (≈ 97.8 µM) | 4.301 | 50 (≈ 97.8 µM) | 25 (≈ 48.9 µM) | –
COc1ccc([C@H]2O[C@@H](c3ccc(OC)cc3)[C@H](C)/C(=N/NC(N)=S)[C@H]2C)cc1 | 4.301 | 50 (≈ 121 µM) | 4.301 | 50 (≈ 121 µM) | 4.602 | 25 (≈ 60.5 µM) | 4.903 | 12.5 (≈ 30.2 µM) | 4.903 | 12.5 (≈ 30.2 µM) | 4.301 | 50 (≈ 121 µM) | 4.903 | 12.5 (≈ 30.2 µM) | 3.698 | 200 (≈ 484 µM) | 50 (≈ 121 µM) | –
C[C@@H]1/C(=N/NC(=S)Nc2ccccc2)C[C@@H](c2ccccc2)O[C@H]1c1ccccc1 | 4.301 | 50 (≈ 120 µM) | 4 | 100 (≈ 241 µM) | 4.301 | 50 (≈ 120 µM) | 4.301 | 50 (≈ 120 µM) | 4 | 100 (≈ 241 µM) | 4 | 100 (≈ 241 µM) | 4.301 | 50 (≈ 120 µM) | 4.903 | 12.5 (≈ 30.1 µM) | 100 (≈ 241 µM) | 4
CC[C@@H]1/C(=N/NC(=S)Nc2ccccc2)C[C@@H](c2ccccc2)O[C@H]1c1ccccc1 | 4.602 | 25 (≈ 58.2 µM) | 4.301 | 50 (≈ 116 µM) | 4 | 100 (≈ 233 µM) | 4.301 | 50 (≈ 116 µM) | 4 | 100 (≈ 233 µM) | 4 | 100 (≈ 233 µM) | 4 | 100 (≈ 233 µM) | 4.903 | 12.5 (≈ 29.1 µM) | 50 (≈ 116 µM) | –
C[C@@H]1/C(=N\NC(=S)Nc2ccccc2)[C@@H](C)[C@H](c2ccc(F)cc2)O[C@@H]1c1ccc(F)cc1 | 4.903 | 12.5 (≈ 26.8 µM) | 4 | 100 (≈ 215 µM) | 4 | 100 (≈ 215 µM) | 4.301 | 50 (≈ 107 µM) | 4 | 100 (≈ 215 µM) | 4.301 | 50 (≈ 107 µM) | 4.301 | 50 (≈ 107 µM) | 5.204 | 6.25 (≈ 13.4 µM) | 25 (≈ 53.7 µM) | 4.602
C[C@@H]1/C(=N\NC(=S)Nc2ccccc2)[C@@H](C)[C@H](c2ccc(Cl)cc2)O[C@@H]1c1ccc(Cl)cc1 | 5.204 | 6.25 (≈ 12.5 µM) | 4.301 | 50 (≈ 100 µM) | 4 | 100 (≈ 201 µM) | 4.602 | 25 (≈ 50.2 µM) | 4.903 | 12.5 (≈ 25.1 µM) | 4.903 | 12.5 (≈ 25.1 µM) | 4.602 | 25 (≈ 50.2 µM) | 5.204 | 6.25 (≈ 12.5 µM) | 25 (≈ 50.2 µM) | –
C[C@@H]1/C(=N\NC(=S)Nc2ccccc2)[C@@H](C)[C@H](c2ccc(Br)cc2)O[C@@H]1c1ccc(Br)cc1 | 5.204 | 6.25 (≈ 10.6 µM) | 4.602 | 25 (≈ 42.6 µM) | 4 | 100 (≈ 170 µM) | 4.602 | 25 (≈ 42.6 µM) | 5.204 | 6.25 (≈ 10.6 µM) | 4.602 | 25 (≈ 42.6 µM) | 4.602 | 25 (≈ 42.6 µM) | 4.903 | 12.5 (≈ 21.3 µM) | 12.5 (≈ 21.3 µM) | –
Cc1ccc([C@H]2O[C@@H](c3ccc(C)cc3)[C@H](C)/C(=N/NC(=S)Nc3ccccc3)[C@H]2C)cc1 | 4 | 100 (≈ 219 µM) | 4.602 | 25 (≈ 54.6 µM) | 4.301 | 50 (≈ 109 µM) | 4 | 100 (≈ 219 µM) | 5.204 | 6.25 (≈ 13.7 µM) | – | – | 4.301 | 50 (≈ 109 µM) | 4.301 | 50 (≈ 109 µM) | 50 (≈ 109 µM) | –
COc1ccc([C@H]2O[C@@H](c3ccc(OC)cc3)[C@H](C)/C(=N/NC(=S)Nc3ccccc3)[C@H]2C)cc1 | 4.602 | 25 (≈ 51.1 µM) | 4.602 | 25 (≈ 51.1 µM) | 4.602 | 25 (≈ 51.1 µM) | 4.903 | 12.5 (≈ 25.5 µM) | 5.204 | 6.25 (≈ 12.8 µM) | 4.602 | 25 (≈ 51.1 µM) | 4.903 | 12.5 (≈ 25.5 µM) | 3.698 | 200 (≈ 408 µM) | 100 (≈ 204 µM) | 4
C[C@@H]1/C(=N\NC(=S)Nc2ccccc2)[C@@H](C)[C@H](c2ccccc2Cl)O[C@@H]1c1ccccc1Cl | 4.301 | 50 (≈ 100 µM) | 3.698 | 200 (≈ 401 µM) | 4.602 | 25 (≈ 50.2 µM) | 4.301 | 50 (≈ 100 µM) | 4.301 | 50 (≈ 100 µM) | 4.903 | 12.5 (≈ 25.1 µM) | 4.301 | 50 (≈ 100 µM) | 4.602 | 25 (≈ 50.2 µM) | 25 (≈ 50.2 µM) | –
C[C@@H]1/C(=N\NC(=S)Nc2ccccc2)[C@@H](C)[C@H](c2cccc(Cl)c2)O[C@@H]1c1cccc(Cl)c1 | 4.602 | 25 (≈ 50.2 µM) | 4 | 100 (≈ 201 µM) | 4 | 100 (≈ 201 µM) | 4.301 | 50 (≈ 100 µM) | 4.602 | 25 (≈ 50.2 µM) | 4.903 | 12.5 (≈ 25.1 µM) | 4.602 | 25 (≈ 50.2 µM) | 4.602 | 25 (≈ 50.2 µM) | 12.5 (≈ 25.1 µM) | –
C[C@@H]1[C@H](O)[C@@H](C)/C=C/C=C/C=C/C=C/C=C/C=C/C=C/[C@H](O[C@@H]2O[C@H](C)[C@@H](O)[C@H](N)[C@@H]2O)C[C@@H]2O[C@](O)(C[C@@H](O)C[C@@H](O)[C@H](O)CC[C@@H](O)C[C@@H](O)CC(=O)O[C@H]1C)C[C@H](O)[C@H]2C(=O)O [AMPHOTERICIN B] | – | – | 4.301 | 50 (≈ 54.1 µM) | – | – | – | – | – | 25 (≈ 27.1 µM) | – | – | – | – | 4.602 | 25 (≈ 27.1 µM) | – | –

Source: ChEMBL document CHEMBL1759834, “Synthesis, stereochemistry, antimicrobial evaluation and QSAR studies of 2,6-diaryltetrahydropyran-4-one thiosemicarbazones” (2011)
